pIC50: −log10 of the molar value.
Tested on: 885724-159-R-J1-PDC KRAS PDC multicell spheroid viability
Test: Anticancer human tumor 885724-159-R-J1-PDC patient-derived pancreatic adenocarcinoma cell line growth inhibition [KRAS2]
Details: for pIC50: curve of first compound; for viability, T/C: stronger effect = lower value
Summary of the method: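 KRAS-mutant tumor cells were grown as spheroids with HUVEC endothelial cells and human MSCs as stroma. Targeted agents were tested alone and with KRAS pathway inhibitors. Doses started at or near clinical Cmax, or 10 microM, descending half-log.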

[1] = second compound 0.1 µM, first compound 0.0316 µM
[2] = second compound 0.1 µM, first compound 0.1 µM
[3] = second compound 0.1 µM, first compound 0.316 µM
[4] = second compound 0.1 µM, first compound 1 µM
[5] = second compound 0.1 µM, first compound 3.16 µM
[6] = second compound 0.1 µM, first compound 10 µM
[7] = second compound 0.316 µM, first compound 0.0316 µM
[8] = second compound 0.316 µM, first compound 0.1 µM
[9] = second compound 0.316 µM, first compound 0.316 µM
[10] = second compound 0.316 µM, first compound 1 µM
[11] = second compound 0.316 µM, first compound 3.16 µM
[12] = second compound 0.316 µM, first compound 10 µM
[13] = second compound 1 µM, first compound 0.0316 µM
[14] = second compound 1 µM, first compound 0.1 µM
[15] = second compound 1 µM, first compound 0.316 µM
[16] = second compound 1 µM, first compound 1 µM
[17] = second compound 1 µM, first compound 3.16 µM
[18] = second compound 1 µM, first compound 10 µM
[19] = second compound 3.16 µM, first compound 0.0316 µM
[20] = second compound 3.16 µM, first compound 0.1 µM
[21] = second compound 3.16 µM, first compound 0.316 µM
[22] = second compound 3.16 µM, first compound 1 µM
[23] = second compound 3.16 µM, first compound 3.16 µM
[24] = second compound 3.16 µM, first compound 10 µM
[25] = second compound 10 µM, first compound 0.0316 µM
[26] = second compound 10 µM, first compound 0.1 µM
[27] = second compound 10 µM, first compound 0.316 µM
[28] = second compound 10 µM, first compound 1 µM
[29] = second compound 10 µM, first compound 3.16 µM
[30] = second compound 10 µM, first compound 10 µM
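Also: spheroids exposed to agents for 7 days before readout.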

Row | SMILES | pIC50 (second compound 0.1 µM) | pIC50 (second compound 0.316 µM) | pIC50 (second compound 1 µM) | pIC50 (second compound 3.16 µM) | pIC50 (second compound 10 µM) | viability, T/C [1] [%] | viability, T/C [2] [%] | viability, T/C [3] [%] | viability, T/C [4] [%] | viability, T/C [5] [%] | viability, T/C [6] [%] | viability, T/C [7] [%] | viability, T/C [8] [%] | viability, T/C [9] [%] | viability, T/C [13] [%] | viability, T/C [14] [%] | viability, T/C [19] [%] | viability, T/C [20] [%] | viability, T/C [25] [%] | viability, T/C [26] [%] | further results
1 | COc1cc(Nc2ncc3c(n2)-c2ccc(Cl)cc2C(c2c(F)cccc2OC)=NC3)ccc1C(=O)O + CNCc1ccccc1-c1csc(C(C)Nc2nc(C)nc3cc(OC)c(OC)cc23)c1 | < 5.00 | < 5.00 | < 5.00 | > 7.50 | > 7.50 | 102 | 98.5 | 90.5 | 92.7 | 94.7 | 101 | 102 | 92.7 | 89.4 | 94.8 | 87.7 | 2.11 | 2.66 | 0.16 | 0.37 | viability, T/C [10]: 88.5%; viability, T/C [11]: 81%; viability, T/C [12]: 87.7%; viability, T/C [15]: 73.6%; viability, T/C [16]: 81.4%; viability, T/C [17]: 75.6%; viability, T/C [18]: 83.5%; viability, T/C [21]: 1.13%; viability, T/C [22]: 1.16%; viability, T/C [23]: 4.03%; viability, T/C [24]: 12.1%; viability, T/C [27]: 0.43%; viability, T/C [28]: 0.34%; viability, T/C [29]: 0.16%; viability, T/C [30]: 0.35%
2 | COc1cc2nccc(Oc3ccc(NC(=O)C4(C(=O)Nc5ccc(F)cc5)CC4)cc3)c2cc1OC + CNCc1ccccc1-c1csc(C(C)Nc2nc(C)nc3cc(OC)c(OC)cc23)c1 | < 5.00 | < 5.00 | 5.75 | > 7.50 | > 7.50 | 98.3 | 105 | 99.2 | 103 | 69.5 | 61.3 | 96.9 | 101 | 95.3 | 99 | 89.9 | 1.16 | 0.87 | 0.39 | 0.36 | viability, T/C [10]: 90%; viability, T/C [11]: 61.6%; viability, T/C [12]: 58.7%; viability, T/C [15]: 85.1%; viability, T/C [16]: 86.1%; viability, T/C [17]: 13.3%; viability, T/C [18]: 12.6%; viability, T/C [21]: 1.19%; viability, T/C [22]: 0.42%; viability, T/C [23]: 0.32%; viability, T/C [24]: 0.42%; viability, T/C [27]: 0.17%; viability, T/C [28]: 0.18%; viability, T/C [29]: 0.51%; viability, T/C [30]: 0.47%
3 | Cn1ncnc1[C@H]1c2n[nH]c(=O)c3cc(F)cc(c23)N[C@@H]1c1ccc(F)cc1 + CNCc1ccccc1-c1csc(C(C)Nc2nc(C)nc3cc(OC)c(OC)cc23)c1 | < 7.00 | < 7.00 | < 7.00 | > 9.50 | > 9.50 | 80.2 | 80 | – | – | – | – | 77.4 | 71.3 | – | 74.2 | 76.9 | 0.71 | 0.75 | 0.22 | 0.48 | viability, T/C (second compound 0.1 µM, first compound 0.000316 µM): 100%; viability, T/C (second compound 0.1 µM, first compound 0.001 µM): 104%; viability, T/C (second compound 0.1 µM, first compound 0.00316 µM): 88.8%; viability, T/C (second compound 0.1 µM, first compound 0.01 µM): 99.5%; viability, T/C (second compound 0.316 µM, first compound 0.000316 µM): 92.6%; viability, T/C (second compound 0.316 µM, first compound 0.001 µM): 89.2%; viability, T/C (second compound 0.316 µM, first compound 0.00316 µM): 84.1%; viability, T/C (second compound 0.316 µM, first compound 0.01 µM): 98%; viability, T/C (second compound 1 µM, first compound 0.000316 µM): 82.5%; viability, T/C (second compound 1 µM, first compound 0.001 µM): 83.4%; viability, T/C (second compound 1 µM, first compound 0.00316 µM): 91.2%; viability, T/C (second compound 1 µM, first compound 0.01 µM): 78.5%; viability, T/C (second compound 3.16 µM, first compound 0.000316 µM): 1.47%; viability, T/C (second compound 3.16 µM, first compound 0.001 µM): 1.04%; viability, T/C (second compound 3.16 µM, first compound 0.00316 µM): 0.71%; viability, T/C (second compound 3.16 µM, first compound 0.01 µM): 0.73%; viability, T/C (second compound 10 µM, first compound 0.000316 µM): 0.51%; viability, T/C (second compound 10 µM, first compound 0.001 µM): 0.45%; viability, T/C (second compound 10 µM, first compound 0.00316 µM): 0.13%; viability, T/C (second compound 10 µM, first compound 0.01 µM): 0.3%

From PubChem BioAssay AID1963861 (Molecular Pharmacology Branch, DTP, NCI, 2024)
